Measurements taken from patent EP4711365A1 (Shanghai Hansoh Biomedical Co., Ltd., priority 2023, dated 2024).

Key:
[1] = test system: Groα secretion by HT-29 cells; test: Inhibition of Groα secretion by HT-29 cells stimulated with IL-17A (ELISA); type: cell-based, Human; conditions: Homo sapiens, IL-17A 30 ng/ml, Groα in supernatant
Description: Test example 2 Assay for inhibitory effect of compounds of the present invention against Groα secretion by HT-29 cells
Experimental objective: to measure the inhibitory effect of the compounds against Groα secretion by HT-29 cells, thereby evaluating the inhibition of the compounds on IL-17A pathway.
Experimental method: A cell suspension at 50,000 cells/ml was prepared, and 200 µl of the cell suspension was added to each well of a 96-well plate, i.e., 10,000 cells/well. The plate was cultured overnight. In the 96-well V-bottom plate, 5 mM compound solution was serially diluted 3-fold using DMSO, and the compound from each well was diluted 100-fold using a complete culture medium. IL-17A protein (R&D, #BT7955-025/CF) with a stock concentration of 100 µg/ml was diluted 333.33-fold using a complete culture medium. The compound and IL-17A were mixed at a volume ratio of 1:1 and incubated at 37°C for 30 minutes. 50 µl of a mixture of the compound and IL-17A was added to cell wells, and the final concentration of IL-17A protein was 30 ng/ml.
The mixture was incubated in a 37°C, 5% CO2 cell culture incubator for 48 hours. The concentration of Groα in the supernatant was determined by ELISA method using Human Groα Valukin Elisa kit (Biotechne, # VAL139), and the absorbance intensity at 450 nm was measured using a microplate reader (PE, EnVision2105). Data were analysed using GraphPad Prism 8.3.0.
Experimental data processing method: Data were analysed using GraphPad Prism 8.3.0.
Inhibition rate% = [(average value of positive control wells - value of sample wells)/(average value of positive control wells - average value of negative control wells)] × 100%, where the sample wells are wells containing cells plus compounds at different concentration gradients, the positive control wells are wells containing cells plus IL-17A, and the negative control wells are wells containing culture medium plus IL-17A.
Curve fitting: The IC50 value was obtained by curve fitting based on the inhibition rate (%) at each concentration using the log(inhibitor) vs. responseVariable slope (four parameters) in GraphPad Prism 6.0, and the calculation equation was Y = Bottom + (Top-Bottom)/(1+10^((LogIC50-X)*HillSlope)).

[2] = Pharmacokinetic assay in Wistar rats, oral; conditions: rat, 30 mg/kg
Description: Experimental objective: to study the pharmacokinetic behaviours of the compounds of the present invention in the body (plasma) of Wistar rats as test animals after oral administration at a dose of 30 mg/kg. • 2. Experimental scheme • 2.1 Test drugs: the examples of the present invention, prepared in house. • 2.2 Test animals: Wistar rats (female, 3 rats per group), from Beijing Vital River Laboratory Animal Technology Co., Ltd., with the animal production license no.
Solutol HS15 was melted in a water bath at 50-60°C, and then 50 mL of the melted Solutol HS15 was added to 450 mL of ultrapure water. The mixture was stirred and sonicated to obtain 500 mL of 10% Solutol HS15 solution. The compound was weighed, and according to the total administration volume, 30% PEG solution was first added. The mixture was shaken uniformly and sonicated until a clear solution was obtained. Subsequently, 70% (10% Solutol) in water was added, resulting in a colourless and clear solution with a concentration of 3.0 mg/mL.
2.4 Administration scheme: After overnight fasting, 3 female Wistar rats per group were administered orally (PO) at a dose of 30 mg/kg with an administration volume of 10 mL/kg.
• 1) To 50 uL of plasma sample was added 250 uL of acetonitrile for precipitation, and the mixture was mixed and then centrifuged at 4°C at 4000 rpm for 20 minutes. • 2) The treated supernatant solution was taken and subjected to LC/MS/MS to analyse the concentration of the test compounds. LC/MS/MS analysis instrument: AB Sciex API-4000 Qtrap-Shimadzu Controller-CBM20A.
• Chromatographic column: Waters Xbridge C18 3.5 um 2.1*50 mm • Mobile phase: solution A: 0.1% formic acid in water, and solution B: 0.1% formic acid in acetonitrile • Flow rate: 0.6 mL/min • Elution time: 0-3.5 minutes, with eluents as follows:

Compound	IC50 ([1]; HT-29, 48 h)	AUC(0-t) ([2]; in vivo)	Cmax ([2]; in vivo)	Tmax ([2]; in vivo)	half-life ([2]; in vivo)	IC50 ([1]; 48 hours)	AUC(0-t) ([2]; plasma)	Cmax ([2]; plasma)	Tmax ([2]; plasma)	half-life ([2]; plasma)
[2H]C([2H])([2H])C([2H])([2H])n1nccc1C(=O)N[C@H](C(=O)Nc1ncc([C@@H](CN2CCOCC2)N2CC(F)(F)CCC2=O)s1)[C@H]1CC[C@H](C)CC1 [Example 624, N-((S)-2-((5-((R)-1-(5,5-difluoro-2-oxopiperidin-1-yl)-2-morpholinoethyl)thiazol-2-yl)amino)-1-((1r,4S)-4-methylcyclohexyl)-2-oxoethyl)-1-(ethyl-d5)-1H-pyrazole-5-carboxamide]						4.3 nM	11000 ng·h/mL	3400 ng/mL	1 h	60 min
[2H]C([2H])([2H])C([2H])([2H])n1nccc1C(=O)NC(C(=O)Nc1ncc(C(COC)N2CC(F)(F)CCC2=O)s1)C1CCC(C)CC1 [Example 613, N-((S)-2-((5-((R)-1-(5,5-difluoro-2-carbonylpiperidin-1-yl)-2-methoxyethyl)thiazol-2-yl)amino)-1-((1r,4S)-4-methylcyclohexyl)-2-carbonylethyl)-1-(ethyl-d5)-1H-pyrazole-5-carboxamide]						5.6 nM	21000 ng·h/mL	3300 ng/mL	2 h	156 min
[2H]C([2H])([2H])C([2H])([2H])n1nccc1C(=O)N[C@H](C(=O)Nc1ncc([C@@H](CN2CCO[C@H](C)C2)N2CC(F)(F)CCC2=O)s1)[C@H]1CC[C@H](C)CC1 [Example 627, N-((S)-2-((5-((R)-1-(5,5-difluoro-2-oxopiperidin-1-yl)-2-((R)-2-methylmorpholino)ethyl)thiazol-2-yl)amino)-1-((1r,4S)-4-methylcyclohexyl)-2-oxoethyl)-1-(ethyl-d5)-1H-pyrazole-5-carboxamide]						6.3 nM	22100 ng·h/mL	2530 ng/mL	4 h	192 min
C[C@H]1CC[C@H]([C@H](NC(=O)C2(F)CC2)C(=O)Nc2ncc([C@@H](CN3CCC(C(F)(F)F)CC3)N3CC(F)(F)CNC3=O)s2)CC1 [Example 774, N-((S)-2-((5-((R)-1-(5,5-difluoro-2-oxotetrahydropyrimidin-1(2H)-yl)-2-(4-(trifluoromethyl)piperidin-1-yl)ethyl)thiazol-2-yl)amino)-1-((1r,4S)-4-methylcyclohexyl)-2-oxoethyl)-1-fluorocyclopropane-1-carboxamide]	5 nM	24400 ng·h/mL	2310 ng/mL	4 h	270 min					
[2H]C([2H])([2H])C([2H])([2H])n1nccc1C(=O)N[C@H](C(=O)Nc1ncc([C@@H](CN2C[C@@H](C)O[C@H](C)C2)N2CC(F)(F)CCC2=O)s1)[C@H]1CC[C@H](C)CC1 [Example 857, N-((S)-2-((5-((R)-1-(5,5-difluoro-2-oxopiperidin-1-yl)-2-((2R,6R)-2,6-dimethylmorpholino)ethyl)thiazol-2-yl)amino)-1-((1r,4S)-4-methylcyclohexyl)-2-oxoethyl)-1-(ethyl-d5)-1H-pyrazole-5-carboxamide]						2.4 nM	15900 ng·h/mL	2290 ng/mL	2 h	210 min

Continued, in another order:

IC50 ([1]; HT-29, 48 h)	AUC(0-t) ([2]; in vivo)	Cmax ([2]; in vivo)	Tmax ([2]; in vivo)	half-life ([2]; in vivo)	Compound	IC50 ([1]; 48 hours)	AUC(0-t) ([2]; plasma)	Cmax ([2]; plasma)	Tmax ([2]; plasma)	half-life ([2]; plasma)
2.6 nM	15500 ng·h/mL	2650 ng/mL	2 h	186 min	[2H]C([2H])([2H])C([2H])([2H])n1nccc1C(=O)NC(C(=O)Nc1ncc(C(CN2CCOCC2C)N2CC(F)(F)CCC2=O)s1)C1CCC(C)CC1 (stereo not shown) [Example 818]					
4 nM	18900 ng·h/mL	2160 ng/mL	4 h	270 min	[2H]C([2H])([2H])C([2H])([2H])n1nccc1C(=O)N[C@H](C(=O)Nc1ncc([C@@H](CN2CCC(CF)CC2)N2CC(F)(F)CCC2=O)s1)[C@H]1CC[C@H](C)CC1 [Example 928]					
4.6 nM	28400 ng·h/mL	2540 ng/mL	4 h	228 min	[2H]C([2H])([2H])C([2H])([2H])n1nccc1C(=O)N[C@H](C(=O)Nc1ncc([C@@H](CN2CCOC[C@@H]2C)N2CC(F)(F)CCC2=O)s1)[C@H]1CC[C@H](C)CC1 [Example 816]					
